# Where two headings read alike, the source gives them in different places.
# Key:
# [1] = test system: Trypanosoma cruzi (Tulahuen C4); assay: In vitro anti-T. cruzi activity (β-galactosidase CPRG colorimetric assay in VERO monolayer); type: cell-based; conditions: for inhibition at 10 µg/mL / IC50: Trypanosoma cruzi, TULAHUEN, Vero; for inhibition at 10 µg/mL: 120 h, 10 μg/mL of each compound, 120 hours, read-out: T. cruzi Inhib. (%); for IC50: Table 3, read-out: IC50 T. cruzi
# [2] = test system: axenic amastigotes of L. amazonensis (strain MHOM/BR/76/LTB-012); assay: microbe, parasite or virus in culture; conditions: Leishmania amazonensis
# [3] = test system: peritoneal macrophages; assay: Toxicity to peritoneal macrophages (Trypan Blue count); type: cell-based, BALB/C mouse
# Experimental: (§1) Peritoneal macrophages were prepared as follows. Non-inflammatory macrophages (10^6) were collected from each BALB/C mouse. The cells adhered at 37° C. after 2 h under 5% CO2 in a CO2 incubator. The plates were then rinsed two to three times with 0.5 mL of RPMI+buffer MOPS without fetal calf serum to eliminate non-adhering cells. The supernatant on the plates was replaced by fresh medium (RPMI+glutamine+FCS+antibiotics), 0.5 mL of medium per well. To determine the toxicity of the compounds to macrophages, dilutions of compounds were added on a part of the macrophages prepared above. […] The medium was then removed and 1 μL of sterile Trypan Blue was added. Cover glasses N° 1 were left where cells were plated and then the number of macrophages in a microscope was determined with a haemocytometer. All experiments were performed in triplicate.
# [4] = test system: axenic amastigotes of L. amazonensis (strain MHOM/BR/76/LTB-012); conditions: Table 8b; for IC50: read-out: L. amazonensis IC50
# [5] = test system: 3T3 cells; assay: Cell growth inhibition bioassay (sulforhodamine B); type: cell-based, mouse; conditions: 48 h, SRB; for GI50: Mus musculus, NIH3T3, read-out: GI50 in indicated cell line: 3T3
# Experimental: (§2) The cytotoxicity of compounds was assayed as follows. […] Appropriate solvent controls were tested for comparison. The percent inhibition of cell growth relative to the control was evaluated colorimetrically using a sulforhodamine B dye by comparison to the control. The calorimetric procedure followed that published in Skehan et al., J. Nat. Cancer Inst., […], pp. 1107-1112 (1990) and Boyd & Paull, Drug Dev. Res., Vol. 34, pp. 91-109 (1995). […] The cell lines are: 3T3 cells are BALB/3T3 clone A31 embryonic mouse fibroblast cells; H460 cells are human large cell lung cancer cells; DU145 cells are human prostate carcinoma cells; MCF-7 cells are human breast adenocarcinoma cells; M-14 cells are human melanoma cells; HT-29 cells are human colon adenocarcinoma cells; PC3 cells are human prostate adenocarcinoma cells; K562 cells are human chronic myelogenous leukemia cells; and VERO cells are African Green Monkey kidney epithelial cells.
# [6] = test system: H460 cells; assay: Cell growth inhibition bioassay (sulforhodamine B); type: cell-based, human; conditions: 48 h, SRB; for GI50: Homo sapiens, NCI-H460, read-out: GI50 in indicated cell line: H460
# Experimental: as §2
# [7] = test system: HT-29 cells; assay: Cell growth inhibition bioassay (sulforhodamine B); type: cell-based, human; conditions: 48 h, SRB; for GI50: Homo sapiens, HT-29, read-out: GI50 in indicated cell line: HT-29
# Experimental: as §2
# [8] = test system: DU145 cells; assay: Cell growth inhibition bioassay (sulforhodamine B); type: cell-based, human; conditions: 48 h, SRB; for GI50: Homo sapiens, DU-145, read-out: GI50 in indicated cell line: DU145
# Experimental: as §2
# [9] = test system: K562 cells; assay: Cell growth inhibition bioassay (sulforhodamine B); type: cell-based, human; conditions: 48 h, SRB; for GI50: Homo sapiens, K562, read-out: GI50 in indicated cell line: K562
# Experimental: as §2
# [10] = test system: M-14 cells; assay: Cell growth inhibition bioassay (sulforhodamine B); type: cell-based, human; conditions: 48 h, SRB; for GI50: Homo sapiens, M14, read-out: GI50 in indicated cell line: M-14
# Experimental: as §2
# [11] = test system: MCF-7 cells; assay: Cell growth inhibition bioassay (sulforhodamine B); type: cell-based, human; conditions: 48 h, SRB; for GI50: Homo sapiens, MCF7, read-out: GI50 in indicated cell line: MCF-7
# Experimental: as §2
# [12] = test system: M. tuberculosis H37Rv; assay: Conventional aerobic (MABA) culture assay, luminescence MIC; type: cell-based, Mycobacterium tuberculosis; conditions: aerobic, 7 days, H37Rv; for MIC: Mycobacterium tuberculosis, 168 h
# [13] = test system: VERO cells; assay: Cell growth inhibition bioassay (sulforhodamine B); type: cell-based, African Green Monkey; conditions: 48 h, SRB; for GI50: Chlorocebus sabaeus, Vero, read-out: GI50 in indicated cell line: VERO
# Experimental: as §2
# [14] = Toxicity to peritoneal macrophages (Trypan Blue count); type: cell-based, BALB/C mouse; conditions: BALB/C, mouse, Cytotoxicity Macrophages IC50
# Experimental: as §1
# [15] = test system: L. amazonensis; conditions: intralesional, compounds 5 mg/kg/day; for Mean lesion size (mm) / Mean parasite quantification (per 10^6) in lesion per mg (±SD) / Mean lesion wt (mg) (±SD) / % Variation of lesion wt / % reduction of parasite burden in the lesion: Glucantime 33 mg Sb(v)/kg/day; for Mean lesion wt (mg) (±SD): BALB/c mice n=10; for % Variation of lesion wt / % reduction of parasite burden in the lesion: vs control
# [16] = 72 h, read-out: IC50 L. amazonensis
# [17] = Mus musculus, Peritoneal macrophage, 48 h, Table 7, read-out: IC50 Macrophage
compound,measurement,setting,value
"C=CCOc1cc(OC)c(C(=O)/C=C/c2ccc(O)c(OC)c2)c(OCC=C)c1 [Compound I-18, (2E)-1-[2-Methoxy-4,6-bis(2-propenyloxy)phenyl]-3-(3-methoxy-4-hydroxyphenyl)-2-propen-1-one]",inhibition at 10 µg/mL,[1],27.9%
same,IC50,[1],> 25 µM
same,IC50,[2]; [16],107 µM
"C=CCOc1cc(OC)c(C(=O)/C=C/C=C/c2ccccc2)c(OCC=C)c1 [Compound I-21, (2E,4E)-1-[2-Methoxy-4,6-bis(2-propenyloxy)phenyl]-5-phenyl-2,4-pentadien-1-one]",inhibition at 10 µg/mL,[1],47.7%
same,IC50,[1],> 25 µM
same,IC50,[2]; [16],75.2 µM
"C=CCOc1cc(OC)c(C(=O)/C=C/c2ccc[nH]2)c(OCC=C)c1 [Compound I-22, (2E)-3-(1H-pyrrol-2-yl)-1-[2-methoxy-4,6-bis(2-propenyloxy)phenyl]-2-propen-1-one]",inhibition at 10 µg/mL,[1],1.25%
same,IC50,[1],> 100 µM
same,IC50,[2]; [16],94.3 µM
"COc1cc(O)cc(O)c1C(=O)/C=C/c1ccccc1 [Compound I-29, (2E)-1-(2,4-Dihydroxy-6-methoxyphenyl)-3-(phenyl)-2-propen-1-one]",IC50,[2]; [16],15.9 µM
same,IC50,[3]; [17],27 µM
"COc1cc(O)cc(O)c1C(=O)/C=C/c1ccc(O)cc1 [Compound I-30, (2E)-1-(2,4-Dihydroxy-6-methoxyphenyl)-3-(4-hydroxyphenyl)-2-propen-1-one]",IC50,[2]; [16],15.7 µM
same,IC50,[3]; [17],21.7 µM
"COc1cccc(/C=C/C(=O)c2c(O)cc(O)cc2OC)c1 [Compound I-31, (2E)-1-(2,4-Dihydroxy-6-methoxyphenyl)-3-(3-methoxyphenyl)-2-propen-1-one]",IC50,[2]; [16],12 µM
same,IC50,[3]; [17],17.6 µM
"COc1cc(O)cc(O)c1C(=O)/C=C/c1ccc(C(F)(F)F)cc1 [Compound I-32, (2E)-1-(2,4-Dihydroxy-6-methoxyphenyl)-3-[4-(trifluoromethyl)phenyl]-2-propen-1-one]",IC50,[2]; [16],8.6 µM
same,IC50,[3]; [17],17.1 µM
"COc1cc(O)cc(O)c1C(=O)/C=C/c1ccc(Cl)cc1 [Compound I-33, (2E)-3-(4-Chlorophenyl)-1-(2,4-dihydroxy-6-methoxyphenyl)-2-propen-1-one]",IC50,[2]; [16],11.2 µM
same,IC50,[3]; [17],19 µM
"COc1cc(O)cc(O)c1C(=O)/C=C/c1ccccc1F [Compound I-34, (2E)-1-(2,4-Dihydroxy-6-methoxyphenyl)-3-(2-fluorophenyl)-2-propen-1-one]",IC50,[2]; [16],11.8 µM
same,IC50,[3]; [17],16 µM
"COc1cc(O)cc(O)c1C(=O)/C=C/c1ccccc1Br [Compound I-35, (2E)-3-(2-Bromophenyl)-1-(2,4-dihydroxy-6-methoxyphenyl)-2-propen-1-one]",IC50,[2]; [16],10.6 µM
same,IC50,[3]; [17],14.6 µM
"COc1cc(/C=C/C(=O)c2c(O)cc(O)cc2OC)ccc1O [Compound I-37, (2E)-1-(2,4-Dihydroxy-6-methoxyphenyl)-3-(3-methoxy-4-hydroxyphenyl)-2-propen-1-one]",IC50,[2]; [16],14.9 µM
"COc1cc(/C=C/C(=O)c2c(O)cc(O)cc2OC)cc(OC)c1OC [Compound I-38, (2E)-1-(2,4-Dihydroxy-6-methoxyphenyl)-3-(3,4,5-trimethoxydroxyphenyl)-2-propen-1-one]",IC50,[2]; [16],9.7 µM
"COc1cc(O)cc(O)c1C(=O)/C=C/C=C/c1ccccc1 [Compound I-39, (2E,4E)-1-(2,4-Dihydroxy-6-methoxyphenyl)-5-phenyl-2,4-pentadien-1-one]",IC50,[2]; [16],52.6 µM
"COc1cc(O)cc(O)c1C(=O)/C=C/c1ccc(F)cc1 [Compound I-40, (2E)-1-(2,4-Dihydroxy-6-methoxyphenyl)-3-(4-fluorophenyl)-2-propen-1-one]",IC50,[2]; [16],11.8 µM
same,IC50,[3]; [17],28.8 µM
"COc1cc(O)cc(O)c1C(=O)/C=C/c1ccc(C)cc1 [Compound I-41, (2E)-1-(2,4-Dihydroxy-6-methoxyphenyl)-3-(4-methylphenyl)-2-propen-1-one]",IC50,[2]; [16],7.4 µM
same,IC50,[3]; [17],16.5 µM
C(=N/Nc1ncnc2sc3c(c12)CCCC3)/c1ccncc1 [II-20],Selectivity Index,[4],0.7
same,GI50,[5],25.7 µg/mL
same,GI50,[6],52.4 µg/mL
same,GI50,[7],47.3 µg/mL
same,GI50,[8],26 µg/mL
same,GI50,[9],33.8 µg/mL
same,GI50,[10],> 62.5 µg/mL
same,GI50,[11],26 µg/mL
same,MIC,[12],> 100 µg/mL
same,GI50,[13],38.3 µg/mL
same,IC50,[2]; read-out: L. amazonensis IC50,72 µM
same,IC50 at 48 h,[14],47.7 µM
O=[N+]([O-])c1ccccc1C=NNc1ncnc2sc3c(c12)CCCC3 [II-23],IC50,[4],38.1 µM
same,GI50 in indicated cell line: 3T3,[5],>62.5 µg/mL
same,GI50 in indicated cell line: H460,[6],18.7 µg/mL
same,GI50 in indicated cell line: HT-29,[7],70.5 µg/mL
same,GI50 in indicated cell line: DU145,[8],36.4 µg/mL
same,GI50 in indicated cell line: K562,[9],61.6 µg/mL
same,GI50 in indicated cell line: M-14,[10],58.9 µg/mL
same,GI50 in indicated cell line: MCF-7,[11],18.4 µg/mL
same,MIC MABA,[12],>100 µg/mL
same,GI50 in indicated cell line: VERO,[13],>62.5 µg/mL
same,T. cruzi IC50 Lab A,[1]; Lab A,1.1 µg/mL
same,IC50,[3],> 100 µM
N#Cc1ccc(C=NNc2ncnc3sc4c(c23)CCCC4)cc1 [II-32],IC50,[4],10.8 µM
same,GI50 in indicated cell line: 3T3,[5],50.1 µg/mL
same,GI50 in indicated cell line: H460,[6],>62.5 µg/mL
same,GI50 in indicated cell line: HT-29,[7],>62.5 µg/mL
same,GI50 in indicated cell line: DU145,[8],>62.5 µg/mL
same,GI50 in indicated cell line: K562,[9],>62.5 µg/mL
same,GI50 in indicated cell line: M-14,[10],>62.5 µg/mL
same,GI50 in indicated cell line: MCF-7,[11],33.9 µg/mL
same,MIC MABA,[12],>100 µg/mL
same,GI50 in indicated cell line: VERO,[13],>62.5 µg/mL
same,IC50,[3],53.9 µM
c1ccc(C(=NNc2ncnc3sc4c(c23)CCCC4)c2ccccc2)cc1 [II-49],Selectivity Index,[4],0.9
same,GI50,[5],> 62.5 µg/mL
same,GI50,[6],> 62.5 µg/mL
same,GI50,[7],> 62.5 µg/mL
same,GI50,[8],> 62.5 µg/mL
same,GI50,[9],> 62.5 µg/mL
same,GI50,[10],> 62.5 µg/mL
same,GI50,[11],> 62.5 µg/mL
same,MIC,[12],> 100 µg/mL
same,GI50,[13],> 62.5 µg/mL
same,IC50,[2]; read-out: L. amazonensis IC50,70.1 µM
same,IC50 at 48 h,[14],59.8 µM
"N-methylglucamine antimoniate [Glucantime, reference compound]",Mean lesion size (mm),[15]; after 4 weeks treatment,2.1 mm
same,Mean parasite quantification (per 10^6) in lesion per mg (±SD),[15]; after 4 weeks treatment,0 (0) amastigotes (×10^6)/mg
same,Mean lesion wt (mg) (±SD),[15]; after 4 weeks treatment,5.6 (±0.4) mg
same,% Variation of lesion wt,[15]; after 4 weeks treatment,91%
same,% reduction of parasite burden in the lesion,[15]; after 4 weeks treatment,100%
same,Mean lesion size (mm),[15]; after 7 weeks treatment,2.2 mm
same,Mean parasite quantification (per 10^6) in lesion per mg (±SD),[15]; after 7 weeks treatment,0 (0) amastigotes (×10^6)/mg
same,Mean lesion wt (mg) (±SD),[15]; after 7 weeks treatment,13.5 (±2.9) mg
same,% Variation of lesion wt,[15]; after 7 weeks treatment,85%
same,% reduction of parasite burden in the lesion,[15]; after 7 weeks treatment,100%
same,Lesion diameter,[15]; Glucantime 33 mg/kg/day,2.2 mm
same,Reduction of parasite burden After 4 weeks,"[15]; Glucantime 33 mg/kg/day, after 4 weeks",100%
same,Reduction of parasite burden After 7 weeks,"[15]; Glucantime 33 mg/kg/day, after 7 weeks",100%
